Assay [1] concerns A549. The assay is described as follows: Test A: Cytostatic cell culture assay (CC50), SRB, solid tumor cell lines. The following applies: Homo sapiens, A549, 120 h, read-out: CC50 Lung A549. From the text:
Test A: Cytostatic Cell Culture Assay (CC50) for Solid Tumor Cell Lines
This assay is based on quantification of cell mass determination by a colorimetric detection of the cell associated proteins. The assay relies on the ability of sulforhodamine B (SRB) to bind to protein components of cells that have been fixed to tissue-culture plates by trichloroacetic acid (TCA). SRB is a bright-pink aminoxanthene dye with two sulfonic groups that bind to basic amino-acid residues under mild acidic conditions, and dissociate under basic conditions. As the binding of SRB is stochiometric, the amount of dye extracted from stained cells is directly proportional to the cell mass.
Cell lines: All cell lines are obtained from ATCC (Manassas, Va.). Cultivation media containing Glutamax, and trypsin are purchased from Invitrogen (Carlsbad, Calif.). Doxorubicin, Tubercidin, Clofarabine, TCA and SRB are from Sigma-Aldrich (St. Louis, Mo.). Gemcitabine is obtained from Moravek Biochemicals (Brea, Calif.)
• 1. Trypsinize the sub-confluent cells, count them, and adjust the cell concentrations according to the cell counts listed in Table 1. • 2. Distribute the cells into the 96-well plates in 150 μL of media. Incubate the plates overnight in humidified CO2 incubator at 37° C. • 3. Fix one plate of each cell line with TCA. Discard the cultivation media from the plates by flicking them gently and add 100 μL cold 10% (vol/vol) TCA to each well. Incubate the plates at 4 degree refrigerator for 1 hour. Discard TCA from the plates by flicking them gently. Rinse plates four times in a washing basin containing tap water. Store the plates at room temperature. These plates represent cell counts on day zero. • 4. Prepare a set of medium solutions containing various concentrations of tested compounds by making 5-fold serial dilutions in 96-well plate. Add 50 μL of the diluted compounds per well. Include controls with untreated cells and cells treated with doxorubicin, tubercidin, clofarabine and/or gemcitabine. • 5. Incubate the plates for 5 days at 37° C. • 6. Fix the plates with TCA. Discard the cultivation media from the plates by flicking them gently and add 100 μL cold 10% (vol/vol) TCA to each well. Incubate the plates at 4 degree refrigerator for 1 hour. Discard TCA from the plates by flicking them gently. Rinse plates four times in a washing basin containing tap water. • 7. Remove excess water by tapping the plates face down, gently on a paper towel. Allow the plates to air-dry at room temperature. • 8. Add 100 μL of 0.057% SRB solution in 1% (vol/vol) acetic acid to each well of the plates fixed with TCA on day zero and five. Leave at room temperature for 30 minutes. • 9. Flick the plates gently to discard SRB. Rinse the plates four times with 1% (vol/vol) Acetic Acid. • 10. Store the plates at 37° incubator to facilitate faster drying. • 11. Once the plates are completely dry, add 200 μL of 10 mM Tris base solution (pH 10.5) to each well. Leave at room temperature for 30 minutes for SRB to solubilize. • 12. Measure the OD at 500 nm in a microplate reader. • 13. Calculate the percentage of cell-growth inhibition using the next formula: % of control cell growth=100×(ODsample−mean ODday0)/(ODneg control−mean ODday0). For CC50 determination, plot a dose-response curves between the compound concentration and percent of growth inhibition. CC50 values can be derived by fitting dose-response curves using sigmoidal dose response equation.

Assay [2] deals with Du145. The assay is described as above. Format: cell-based. The following applies: Homo sapiens, DU-145, 120 h, read-out: CC50 Prostate Du145. The procedure: (§1) Gemcitabine is obtained from Moravek Biochemicals (Brea, Calif.)
(§2) • 1. […] Fix one plate of each cell line with TCA. […] Discard TCA from the plates by flicking them gently. […] Store the plates at room temperature. These plates represent cell counts on day zero. • 4. […] Add 50 μL of the diluted compounds per well. […] Fix the plates with TCA. […] Discard TCA from the plates by flicking them gently. […] Leave at room temperature for 30 minutes. • 9. Flick the plates gently to discard SRB.

The test system of assay [3] is HCT116. The assay is described as above. In kind it is cell-based. The following applies: Homo sapiens, HCT-116, 120 h, read-out: CC50 Colon HCT116. The procedure: as §1, §2
The subject of assay [4] is HCT15. The description is as above. In kind it is cell-based. The following applies: Homo sapiens, HCT-15, 120 h, read-out: CC50 Colon HCT15. How it is done:
as §1, §2

In assay [5] the test system is HS578. The assay is described as above. In kind it is cell-based. Conditions: Homo sapiens, Hs578, 120 h, read-out: CC50 Breast HS578. How it is done:
as §1, §2

Assay [6] concerns NCI H23. Described as above. The following applies: Homo sapiens, NCI-H23, 120 h, read-out: CC50 Lung NCI H23. Format: cell-based. The procedure: as §1, §2
The test system of assay [7] is PC3. Described as above. The following applies: Homo sapiens, PC-3, 120 h, read-out: CC50 Prostate PC3. Format: cell-based. The procedure: as §1, §2
In assay [8] the test system is human tumor cell lines. Kind of assay: Tests A and B, all tumor cell lines together. Format: cell-based. Conditions: read-out: CC50 Geometric mean all. How it is done: as §2
Plates were incubated for 5 days with tested compounds.

In assay [9] the test system is MT-4 T-lymphoid cell line. Kind of assay: Test B: Cytostatic cell culture assay (CC50), CellTiter Glo, lymphoid tumor cell lines. Conditions: Homo sapiens, MT4, 120 h, read-out: CC50 T-lymphoid MT-4. (In general: In ATP-based viability assays light output follows the ATP content of the culture.)
Protocol: Test B: Cytostatic Cell Culture Assay (CC50) for Lymphoid Tumor Cell Lines
This test is typically performed with cell lines that are derived from hematological tumors and grow in suspension. An example of such cell line is human MT-4 T-lymphoid cell line used for the determination of cytostatic activity of tested compounds. […] Cells were passaged in suspension twice a week and maintained at densities below 500,000 cells/mL. For CC50 determination, cells were seeded into 384-well plates at 2,000 cells/well in 20 μL of culture medium. Compounds were serially diluted in culture medium and added in triplicate to a final assay volume of 40 μL/well. Plates were incubated for 5 days with tested compounds. At the end of incubation, cell viability was determined by addition of 40 μL of CellTiter Glo reagent followed by a luminescence read-out.
Data analysis and CC50 value calculations were done using GraphPad Prism software (GraphPad Software, San Diego, Calif.) by applying nonlinear regression.
In assay [10] the test system is BT549. The assay is described as follows: Test A: Cytostatic cell culture assay (CC50), SRB, solid tumor cell lines. Format: cell-based. Conditions: Homo sapiens, BT-549, 120 h; BT549 breast tumor cells, 5 days, SRB; read-out: CC50 Breast BT549. The procedure:
as §1, §2

One may read the CC50 as the concentration giving 50% cytotoxicity.

On to `COc1ccc(-c2cn([C@@H]3O[C@H](CO)[C@@H](O)[C@H]3O)c3ncnc(N)c23)cc1` [Compound 2b, 4-Amino-5-(4-methoxyphenyl)-7-(β-D-ribofuranosyl)-7H-pyrrolo[2,3-d]pyrimidine], for which the CC50 came to 701 nM in [1]; 152 nM in [2]; 633 nM in [3]; 544 nM in assay [4]; 811 nM in assay [5]; 856 nM in [6]. Further, the CC50 turned out to be 1110 nM in assay [7], 768 nM in assay [8] and 4300 nM in [9].

Turning to `Nc1ncnc2c1c(-c1ccco1)cn2[C@@H]1O[C@H](CO)[C@@H](O)[C@H]1O` [Compound 2f, 4-Amino-5-(furan-2-yl)-7-(β-D-ribofuranosyl)-7H-pyrrolo[2,3-d]pyrimidine], the CC50 worked out at 35 nM in [1]; 19 nM in assay [2]; 48 nM in [3]; 3 nM in assay [4]; 17 nM in assay [5]; 294 nM in assay [6]. Moreover, the CC50 in assay [7] turned out to be 4 nM; in assay [8], 25.6 nM; in [9], 86 nM.

Regarding `Nc1ncnc2c1c(-c1cccs1)cn2[C@@H]1O[C@H](CO)[C@@H](O)[C@H]1O` [Compound 2g, 4-Amino-7-(β-D-ribofuranosyl)-5-(thiophen-2-yl)-7H-pyrrolo[2,3-d]pyrimidine], the cytotoxic concentration (CC50) came to 7 nM in assay [1]; 133 nM in [2]; 2.6 nM in assay [3]; 11 nM in [4]; 12 nM in assay [5]; 3.7 nM in assay [6]. Further, the results for the cytotoxic concentration (CC50) in assay [7], in [8] and in assay [9] were 1620 nM, 22.6 nM and 35 nM, respectively.

Turning to `Nc1ccn([C@@H]2O[C@H](CO)[C@@H](O)C2(F)F)c(=O)n1` [Gemcitabine, reference compound], the CC50 came out at 7 nM in assay [1]; 1 nM in assay [10]; 3 nM in [2]; 2 nM in assay [3]; 3 nM in assay [4]; 1 nM in [5]. For the same compound, the CC50 in [6] amounted to 2 nM; in assay [7], 6 nM; in assay [8] it was 2.4 nM; in assay [9], 2 nM.

For the compound `Nc1ncnc2c1ccn2[C@@H]1O[C@H](CO)[C@@H](O)[C@H]1O` [Tubercidin, reference compound], the cytotoxic concentration (CC50) is 1 nM in assay [1]; 18 nM in assay [2]; 1 nM in assay [3]; 11 nM in assay [4]; 98 nM in assay [5]; 11 nM in [6]. The values for the CC50 in [7], in [8] and in [9] were 48 nM, 10.3 nM and 21 nM, respectively.

These data come from patent US10294262B2, “7-deazapurine nucleosides for therapeutic uses” (Institute of Organic Chemistry and Biochemistry ASCR, V.V.I., priority 2009, dated 2019).
